pIC50: −log10 of the molar value.
Test system: 616215-338-R-J1-PDC complex spheroid viability
Assay: Anticancer human tumor 616215-338-R-J1-PDC patient-derived colon adenocarcinoma cell line growth inhibition [POLQ]
Conditions: for pIC50: curve of first compound; for viability, T/C: stronger effect = lower value
Procedure, shortened: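 Complex spheroid viability model combining PDC tumour cells with endothelial (HUVEC) and MSC stromal cells. Novobiocin, ART-558 or RP6685 were tested singly and in combination with standard and investigational anticancer drugs. Each was titrated in half-log steps from near clinical Cmax, or from 10 microM where Cmax was unknown.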

[1] = second compound 0.0316 µM, first compound 0.0316 µM
[2] = second compound 0.0316 µM, first compound 0.1 µM
[3] = second compound 0.0316 µM, first compound 0.316 µM
[4] = second compound 0.0316 µM, first compound 1 µM
[5] = second compound 0.0316 µM, first compound 3.16 µM
[6] = second compound 0.0316 µM, first compound 10 µM
[7] = second compound 0.1 µM, first compound 0.0316 µM
[8] = second compound 0.1 µM, first compound 0.1 µM
[9] = second compound 0.1 µM, first compound 0.316 µM
[10] = second compound 0.1 µM, first compound 1 µM
[11] = second compound 0.1 µM, first compound 3.16 µM
[12] = second compound 0.1 µM, first compound 10 µM
[13] = second compound 0.316 µM, first compound 0.0316 µM
[14] = second compound 0.316 µM, first compound 0.1 µM
[15] = second compound 0.316 µM, first compound 0.316 µM
[16] = second compound 0.316 µM, first compound 1 µM
[17] = second compound 0.316 µM, first compound 3.16 µM
[18] = second compound 0.316 µM, first compound 10 µM
[19] = second compound 1 µM, first compound 0.0316 µM
[20] = second compound 1 µM, first compound 0.1 µM
[21] = second compound 1 µM, first compound 0.316 µM
[22] = second compound 1 µM, first compound 1 µM
[23] = second compound 1 µM, first compound 3.16 µM
[24] = second compound 1 µM, first compound 10 µM
[25] = second compound 3.16 µM, first compound 0.0316 µM
[26] = second compound 3.16 µM, first compound 0.1 µM
[27] = second compound 3.16 µM, first compound 0.316 µM
[28] = second compound 3.16 µM, first compound 1 µM
[29] = second compound 3.16 µM, first compound 3.16 µM
[30] = second compound 3.16 µM, first compound 10 µM
[31] = second compound 10 µM, first compound 0.0316 µM
[32] = second compound 10 µM, first compound 0.1 µM
[33] = second compound 10 µM, first compound 0.316 µM
[34] = second compound 10 µM, first compound 1 µM
[35] = second compound 10 µM, first compound 3.16 µM
[36] = second compound 10 µM, first compound 10 µM
[37] = second compound 0.0316 µM, first compound 0.00316 µM
[38] = second compound 0.0316 µM, first compound 0.01 µM
[39] = second compound 0.1 µM, first compound 0.00316 µM
[40] = second compound 0.1 µM, first compound 0.01 µM
[41] = second compound 0.316 µM, first compound 0.00316 µM
[42] = second compound 0.316 µM, first compound 0.01 µM
[43] = second compound 1 µM, first compound 0.00316 µM
[44] = second compound 1 µM, first compound 0.01 µM
[45] = second compound 3.16 µM, first compound 0.00316 µM
[46] = second compound 3.16 µM, first compound 0.01 µM
[47] = second compound 10 µM, first compound 0.00316 µM
[48] = second compound 10 µM, first compound 0.01 µM
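Also: spheroids exposed to compounds for one week before readout.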
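For viability, T/C in this document: percent viability relative to DMSO vehicle wells taken as 100%.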

`CC1COCCN1c1cc(C2(S(C)(=N)=O)CC2)nc(-c2ccnc3[nH]ccc23)n1` (stereo not drawn) + COC1C(OC(N)=O)C(O)C(Oc2ccc3c(O)c(NC(=O)c4ccc(O)c(CC=C(C)C)c4)c(=O)oc3c2C)OC1(C)C was tested, and the pIC50 (second compound 0.0316 µM) was under 5.00, the pIC50 (second compound 0.1 µM) was under 5.00 and the pIC50 (second compound 0.316 µM) was under 5.00. For the same compound, the pIC50 (second compound 1 µM) was under 5.00, the pIC50 (second compound 3.16 µM) was under 5.00 and the pIC50 (second compound 10 µM) was under 5.00. For the same compound, the viability, T/C [1] was 93.8%, the viability, T/C [2] was 104% and the viability, T/C [3] was 100%. It also gave a viability, T/C [4] of 98.5%, a viability, T/C [5] of 98.5% and a viability, T/C [6] of 67.1%. It also gave a viability, T/C [7] of 98.2%, a viability, T/C [8] of 91.7% and a viability, T/C [9] of 101%. It also gave a viability, T/C [10] of 96.6%, a viability, T/C [11] of 92.3% and a viability, T/C [12] of 73.9%. It also gave a viability, T/C [13] of 97.7%, a viability, T/C [14] of 103% and a viability, T/C [15] of 105%. For the same compound, the viability, T/C [16] was 95.5%, the viability, T/C [17] was 97.2% and the viability, T/C [18] was 65.1%. It also gave a viability, T/C [19] of 99.3%, a viability, T/C [20] of 99.1% and a viability, T/C [21] of 108%. The viability, T/C [22] was 104%, the viability, T/C [23] was 94.2% and the viability, T/C [24] was 63.9%. The viability, T/C [25] was 107%, the viability, T/C [26] was 100% and the viability, T/C [27] was 108%. It also gave a viability, T/C [28] of 94%, a viability, T/C [29] of 94.5% and a viability, T/C [30] of 60.6%. The viability, T/C [31] was 96.8%, the viability, T/C [32] was 95.3% and the viability, T/C [33] was 100%. For the same compound, the viability, T/C [34] was 98.6%, the viability, T/C [35] was 98.7% and the viability, T/C [36] was 61.8%.

Work on `CCCS(=O)(=O)Nc1ccc(F)c(C(=O)c2c[nH]c3ncc(-c4ccc(Cl)cc4)cc23)c1F` + COC1C(OC(N)=O)C(O)C(Oc2ccc3c(O)c(NC(=O)c4ccc(O)c(CC=C(C)C)c4)c(=O)oc3c2C)OC1(C)C yielded a pIC50 (second compound 0.0316 µM) of 5.21, a pIC50 (second compound 0.1 µM) of 5.23 and a pIC50 (second compound 0.316 µM) of 5.24. For the same compound, the pIC50 (second compound 1 µM) was 5.25, the pIC50 (second compound 3.16 µM) was 5.22 and the pIC50 (second compound 10 µM) was 5.24. It also gave a viability, T/C [1] of 99.9%, a viability, T/C [2] of 99.7% and a viability, T/C [3] of 100%. For the same compound, the viability, T/C [4] was 108%, the viability, T/C [5] was 97.1% and the viability, T/C [6] was 16.8%. It also gave a viability, T/C [7] of 98.2%, a viability, T/C [8] of 116% and a viability, T/C [9] of 102%. For the same compound, the viability, T/C [10] was 107%, the viability, T/C [11] was 91.1% and the viability, T/C [12] was 15.2%. The viability, T/C [13] was 109%, the viability, T/C [14] was 113% and the viability, T/C [15] was 95.8%. The viability, T/C [16] was 99.7%, the viability, T/C [17] was 83.8% and the viability, T/C [18] was 18.9%. The viability, T/C [19] was 113%, the viability, T/C [20] was 103% and the viability, T/C [21] was 96.7%. For the same compound, the viability, T/C [22] was 105%, the viability, T/C [23] was 86.4% and the viability, T/C [24] was 14.1%. The viability, T/C [25] was 96.6%, the viability, T/C [26] was 99.7% and the viability, T/C [27] was 98.1%. It also gave a viability, T/C [28] of 107%, a viability, T/C [29] of 91.3% and a viability, T/C [30] of 16.9%. For the same compound, the viability, T/C [31] was 106%, the viability, T/C [32] was 97.8% and the viability, T/C [33] was 104%. The viability, T/C [34] was 93%, the viability, T/C [35] was 89.9% and the viability, T/C [36] was 15.8%.

`COc1cccc(OCCCN)c1-c1cc(Nc2cnc(C#N)cn2)n[nH]1` + COC1C(OC(N)=O)C(O)C(Oc2ccc3c(O)c(NC(=O)c4ccc(O)c(CC=C(C)C)c4)c(=O)oc3c2C)OC1(C)C gave a pIC50 (second compound 0.0316 µM) of under 6.00, a pIC50 (second compound 0.1 µM) of under 6.00 and a pIC50 (second compound 0.316 µM) of under 6.00. The pIC50 (second compound 1 µM) was under 6.00, the pIC50 (second compound 3.16 µM) was under 6.00 and the pIC50 (second compound 10 µM) was 6.06. The viability, T/C [37] was 95.7%, the viability, T/C [38] was 109% and the viability, T/C [1] was 94.8%. It also gave a viability, T/C [2] of 76.1%, a viability, T/C [3] of 69.3% and a viability, T/C [4] of 61%. The viability, T/C [39] was 98.6%, the viability, T/C [40] was 99.3% and the viability, T/C [7] was 97.8%. The viability, T/C [8] was 78.8%, the viability, T/C [9] was 65.1% and the viability, T/C [10] was 51.7%. It also gave a viability, T/C [41] of 100%, a viability, T/C [42] of 106% and a viability, T/C [13] of 85.7%. The viability, T/C [14] was 87.4%, the viability, T/C [15] was 68% and the viability, T/C [16] was 53.5%. It also gave a viability, T/C [43] of 103%, a viability, T/C [44] of 101% and a viability, T/C [19] of 89.2%. For the same compound, the viability, T/C [20] was 75.3%, the viability, T/C [21] was 67.2% and the viability, T/C [22] was 54.2%. For the same compound, the viability, T/C [45] was 98.8%, the viability, T/C [46] was 95.3% and the viability, T/C [25] was 86.3%. For the same compound, the viability, T/C [26] was 74.2%, the viability, T/C [27] was 63.3% and the viability, T/C [28] was 55.2%. For the same compound, the viability, T/C [47] was 95.7%, the viability, T/C [48] was 97% and the viability, T/C [31] was 88.1%. For the same compound, the viability, T/C [32] was 79.8%, the viability, T/C [33] was 64.4% and the viability, T/C [34] was 47.9%.

In the case of `Cn1ncnc1[C@H]1c2n[nH]c(=O)c3cc(F)cc(c23)N[C@@H]1c1ccc(F)cc1` + COC1C(OC(N)=O)C(O)C(Oc2ccc3c(O)c(NC(=O)c4ccc(O)c(CC=C(C)C)c4)c(=O)oc3c2C)OC1(C)C, the pIC50 (second compound 0.0316 µM) was under 7.00, the pIC50 (second compound 0.1 µM) was under 7.00 and the pIC50 (second compound 0.316 µM) was under 7.00. For the same compound, the pIC50 (second compound 1 µM) was under 7.00, the pIC50 (second compound 3.16 µM) was under 7.00 and the pIC50 (second compound 10 µM) was under 7.00. The viability, T/C (second compound 0.0316 µM, first compound 0.000316 µM) was 103%, the viability, T/C (second compound 0.0316 µM, first compound 0.001 µM) was 107% and the viability, T/C [37] was 105%. For the same compound, the viability, T/C [38] was 107%, the viability, T/C [1] was 102% and the viability, T/C [2] was 102%. For the same compound, the viability, T/C (second compound 0.1 µM, first compound 0.000316 µM) was 97.2%, the viability, T/C (second compound 0.1 µM, first compound 0.001 µM) was 90.8% and the viability, T/C [39] was 102%. The viability, T/C [40] was 103%, the viability, T/C [7] was 101% and the viability, T/C [8] was 109%. It also gave a viability, T/C (second compound 0.316 µM, first compound 0.000316 µM) of 95.5%, a viability, T/C (second compound 0.316 µM, first compound 0.001 µM) of 106% and a viability, T/C [41] of 98.9%. For the same compound, the viability, T/C [42] was 104%, the viability, T/C [13] was 109% and the viability, T/C [14] was 95.9%. For the same compound, the viability, T/C (second compound 1 µM, first compound 0.000316 µM) was 106%, the viability, T/C (second compound 1 µM, first compound 0.001 µM) was 95.7% and the viability, T/C [43] was 108%. The viability, T/C [44] was 105%, the viability, T/C [19] was 107% and the viability, T/C [20] was 104%. For the same compound, the viability, T/C (second compound 3.16 µM, first compound 0.000316 µM) was 109%, the viability, T/C (second compound 3.16 µM, first compound 0.001 µM) was 98.5% and the viability, T/C [45] was 102%. For the same compound, the viability, T/C [46] was 101%, the viability, T/C [25] was 102% and the viability, T/C [26] was 105%. For the same compound, the viability, T/C (second compound 10 µM, first compound 0.000316 µM) was 105%, the viability, T/C (second compound 10 µM, first compound 0.001 µM) was 101% and the viability, T/C [47] was 103%. The viability, T/C [48] was 117%, the viability, T/C [31] was 105% and the viability, T/C [32] was 97.1%.

Reference: PubChem BioAssay AID1963843 (Molecular Pharmacology Branch, DTP, NCI, 2024)
